Reference: patent US20040185016A1, “Compositions for treatment of hyperpigmentation and methods for making and using such compositions” (priority 2002, published 2004)
Like-named read-outs stand apart in the source and are kept apart here.

Key:
[1] = in composition of Example 1; 30 and 90 days
Experimental: The composition of Example 1 was subjected to a range of temperatures over a period of time from 30 to 90 days to determine the chemical stability of selected ingredients. […] “FT” refers to freeze thaw conditions (−10° to −20° C.) where the product is exposed to freezing conditions for two days and then allowed to that at controlled room temperature (15° to 30° C.) for the next five days.

[2] = 0 days
Experimental: (§1) The composition of Example 3 was subjected to a range of temperatures over a prolonged period of time to determine the chemical stability of selected ingredients.
(§2) Next, chemical stability of avobenzone was determined using a suitable HPLC assay.
(§3) Next, the chemical stability of octyl methoxycinnamate was determined using a suitable HPLC assay.
(§4) Next, the chemical stability of the oxybenzone sunscreen was determined for 30 and 60 days at 6° C., 25° C., 30° C., and 40° C. using a suitable HPLC assay.
(§5) Next, the chemical stability of the oxybenzone sunscreen at 90 days was determined using a suitable HPLC assay.

[3] = chemical stability of selected ingredients in the composition of Example 3 (HPLC assay); settings: in composition of Example 3
Experimental: as §1, §2, §3, §4, §5

SMILES: COc1ccc(C(=O)CC(=O)c2ccc(C(C)(C)C)cc2)cc1 [avobenzone]
- ingredient activity after exposure of the formulation to high and low temperatures [1]: remained active
- ingredient content, chemical stability by HPLC [2]: 3.03 % W/W
- ingredient activity after exposure of the formulation to high and low temperatures ([3]; 30 to 90 days): remained active

SMILES: Oc1ccc(O)cc1 [hydroquinone]
- ingredient activity after exposure of the formulation to high and low temperatures [1]: remains active
- ingredient content, chemical stability by HPLC [2]: 3.95 % W/W
- ingredient activity after exposure of the formulation to high and low temperatures ([3]; 30 to 90 days): remained active

SMILES: CCCCC(CC)COC(=O)C=Cc1ccc(OC)cc1 (stereo not drawn) [octyl methoxycinnamate]
- ingredient content, chemical stability by HPLC [2]: 7.61 % W/W

SMILES: COc1ccc(C(=O)c2ccccc2)c(O)c1 [oxybenzone]
- ingredient activity after exposure of the formulation to high and low temperatures ([3]; 30 to 60 days): remained active
- ingredient activity after exposure of the formulation to high and low temperatures ([3]; 30 to 90 days): remained active
- ingredient content, chemical stability by HPLC ([3]; 30 days, 25°): 5.98 % W/W
- ingredient content, chemical stability by HPLC ([3]; 30 days, 30°): 5.95 % W/W
- ingredient content, chemical stability by HPLC ([3]; 30 days, 40°): 6.04 % W/W
- ingredient content, chemical stability by HPLC ([3]; 60 days, 25°): 6.04 % W/W
- ingredient content, chemical stability by HPLC ([3]; 60 days, 30°): 6.02 % W/W
- ingredient content, chemical stability by HPLC ([3]; 60 days, 40°): 6.07 % W/W
- ingredient content, chemical stability by HPLC ([3]; 90 days, 6°): 6.05 % W/W
- ingredient content, chemical stability by HPLC ([3]; 90 days, 25°): 6.09 % W/W
- ingredient content, chemical stability by HPLC ([3]; 90 days, 30°): 6.07 % W/W
- ingredient content, chemical stability by HPLC ([3]; 90 days, 40°): 6.06 % W/W
- ingredient content, chemical stability by HPLC ([3]; 90 days, FT (freeze thaw)): 6.09 % W/W
- ingredient content, chemical stability by HPLC ([3]; day 0, 25°): 6.07 % W/W
